pIC50: −log10 of the molar value.
Legend:
Type in all cases: biochemical
SIK1 [1] = molecular target: T1, SIK1 (Homo sapiens, UniProt P57059); test: 33P radioactive kinase assay, SIK1
T1 construct: purchased Carna Biosciences 02-131
Procedure: (§1) The principle of the ^33P radioactive kinase assay consists in measuring the incorporated ^33P into the substrate AMARA peptide when phosphorylated by SIK1, SIK2 or SIK3 using [^33P]-g-ATP, which correlates with kinase activity.
(§2) The test compounds are prepared as a serial dilution of 10 point dose responses with 1/5 dilution steps in 100% DMSO starting from 2 mM highest concentration, diluted 1/20 in water and 5 μL is transferred to the assay plates (Greiner, Cat #651201).
(§3) 1% DMSO and 10 μM staurosporine final concentrations are used as negative and positive controls.
(§4) 11 μL of enzyme-substrate mixture is added on the assay plates. The reactions are started by adding 9 μL ATP mixture, consisting of non-labeled and ^33P-labeled ATP, on the assay plates.
(§5) The reactions are stopped by adding 25 μL phosphoric acid (150 mM) to the reactions.
(§6) The completely terminated kinase reactions are transferred using a harvester on pre-wetted UniFilter-96 plates (UniFilter-96 GF/B, PerkinElmer Inc., Cat #6005177).
(§7) After harvesting the kinase reactions, the filter plates are washed 6 times with phosphoric acid (75 mM). The back of the UniFilter-96 plates are sealed and 40 μL MicroScint-20 (PerkinElmer Inc., Cat #6013621) is added to each well. The top of the plates are sealed with TopSeal-A. Read-out is performed with a TopCount instrument (PerkinElmer Inc.).
(§8) Raw data are generated following the read-out performed on the TopCount, plotted to generate dose response curves to calculate percentage inhibition (PIN) and average IC50 for each SIK homologue which are reported in the table below.

SIK3 [2] = molecular target: T2, SIK3 (Homo sapiens, UniProt Q9Y2K2); test: 33P radioactive kinase assay, SIK3; conditions: 33P radioactive assay; AMARA 7 μM; 15 μM ATP; 80 min; average IC50
T2 construct: purchased SignalChem S12-11G-100
T2 sequence (Q9Y2K2 59-365 limits assumed): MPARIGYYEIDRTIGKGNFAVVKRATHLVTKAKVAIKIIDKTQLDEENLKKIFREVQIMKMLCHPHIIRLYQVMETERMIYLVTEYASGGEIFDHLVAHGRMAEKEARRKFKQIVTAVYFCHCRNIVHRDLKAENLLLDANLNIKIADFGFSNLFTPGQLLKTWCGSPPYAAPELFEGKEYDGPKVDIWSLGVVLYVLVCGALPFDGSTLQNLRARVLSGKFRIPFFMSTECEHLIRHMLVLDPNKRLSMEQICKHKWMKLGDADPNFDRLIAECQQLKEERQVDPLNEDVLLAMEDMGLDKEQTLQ
Procedure: as §1, §2, §3, §4, §5, §6, §7, §8

SIK2 [3] = molecular target: T3, SIK2 (Homo sapiens, UniProt Q9H0K1); test: 33P radioactive kinase assay, SIK2; also: AMARA 5 µM, 10 µM ATP
T3 construct: purchased ThermoFisher Scientific PV4792
T3 sequence (Q9H0K1 whole entry): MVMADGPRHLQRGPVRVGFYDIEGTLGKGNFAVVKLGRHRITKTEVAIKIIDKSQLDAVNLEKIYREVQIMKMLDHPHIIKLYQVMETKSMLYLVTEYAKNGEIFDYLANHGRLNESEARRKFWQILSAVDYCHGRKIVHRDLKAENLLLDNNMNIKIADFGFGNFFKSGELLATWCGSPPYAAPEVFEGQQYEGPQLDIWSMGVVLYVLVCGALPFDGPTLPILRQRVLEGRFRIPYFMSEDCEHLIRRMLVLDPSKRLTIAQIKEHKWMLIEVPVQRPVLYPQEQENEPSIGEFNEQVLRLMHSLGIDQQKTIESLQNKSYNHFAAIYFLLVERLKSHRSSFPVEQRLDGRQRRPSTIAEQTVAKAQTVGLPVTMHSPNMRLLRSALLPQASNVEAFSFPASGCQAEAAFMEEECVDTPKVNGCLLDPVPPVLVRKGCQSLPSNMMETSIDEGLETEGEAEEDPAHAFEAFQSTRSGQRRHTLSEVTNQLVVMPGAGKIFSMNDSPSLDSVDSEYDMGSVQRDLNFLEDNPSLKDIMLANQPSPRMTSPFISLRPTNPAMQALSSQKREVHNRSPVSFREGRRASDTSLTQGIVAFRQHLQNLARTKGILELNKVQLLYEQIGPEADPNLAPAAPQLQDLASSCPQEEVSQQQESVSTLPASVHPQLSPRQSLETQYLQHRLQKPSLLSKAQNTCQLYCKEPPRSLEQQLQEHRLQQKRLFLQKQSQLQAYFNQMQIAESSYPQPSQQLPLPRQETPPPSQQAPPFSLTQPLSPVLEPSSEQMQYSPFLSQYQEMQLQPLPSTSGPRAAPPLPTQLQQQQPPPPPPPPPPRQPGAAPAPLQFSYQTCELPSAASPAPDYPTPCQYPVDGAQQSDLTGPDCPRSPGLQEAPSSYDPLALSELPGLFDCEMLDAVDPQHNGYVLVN
Procedure: as §1, §2, §3, §4, §5, §6, §7, §8

SIK2 [4] = molecular target: T3, SIK2; test: ADP-Glo kinase assay, SIK2
Procedure, shortened: (§9)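 Steps: add enzyme–substrate mixture; start with diluted ATP; incubate RT 120 min; add ADP-Glo Reagent to terminate and remove unconsumed ATP, 40 min; add detection reagent, 30 min; read luminescence. DMSO at 1% and staurosporine at 10 μM (final) define assay windows.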

SIK3 [5] = molecular target: T2, SIK3; test: ADP-Glo kinase assay, SIK3
Procedure, shortened: as §9

SIK1 [6] = molecular target: T1, SIK1; test: ADP-Glo kinase assay, SIK1
Procedure, shortened: as §9

T1 sequence (P57059 whole entry): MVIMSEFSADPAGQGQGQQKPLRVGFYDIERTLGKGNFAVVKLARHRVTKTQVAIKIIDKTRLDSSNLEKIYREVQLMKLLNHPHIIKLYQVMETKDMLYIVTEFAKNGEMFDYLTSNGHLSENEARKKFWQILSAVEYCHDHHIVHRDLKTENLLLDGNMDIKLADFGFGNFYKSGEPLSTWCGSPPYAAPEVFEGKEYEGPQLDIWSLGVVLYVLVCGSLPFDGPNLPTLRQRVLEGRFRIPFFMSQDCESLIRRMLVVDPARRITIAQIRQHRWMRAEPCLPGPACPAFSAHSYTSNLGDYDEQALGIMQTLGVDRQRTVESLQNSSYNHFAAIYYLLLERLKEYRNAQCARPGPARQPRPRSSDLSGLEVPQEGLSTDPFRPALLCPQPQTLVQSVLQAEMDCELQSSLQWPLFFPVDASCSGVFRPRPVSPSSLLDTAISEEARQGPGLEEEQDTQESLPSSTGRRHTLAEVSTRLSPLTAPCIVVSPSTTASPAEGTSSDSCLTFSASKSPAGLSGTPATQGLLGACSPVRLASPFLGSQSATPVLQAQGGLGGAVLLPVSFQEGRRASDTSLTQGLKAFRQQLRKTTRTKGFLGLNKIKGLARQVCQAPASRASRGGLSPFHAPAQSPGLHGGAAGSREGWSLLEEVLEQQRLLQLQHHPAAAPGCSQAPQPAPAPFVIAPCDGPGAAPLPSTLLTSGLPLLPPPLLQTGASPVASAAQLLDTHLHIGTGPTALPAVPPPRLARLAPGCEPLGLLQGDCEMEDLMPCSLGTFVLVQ

pIC50 (SIK1 [1]) | pIC50 (SIK3 [2]) | pIC50 (SIK2 [3]) | pIC50 (SIK2 [4]) | pIC50 (SIK3 [5]) | pIC50 (SIK1 [6]) | SMILES
< 6.30 | 6.30 to 7.00 | < 6.30 |  |  |  | COc1cc(-n2cnc3cc(C4CCN(CC#N)CC4)ccc32)cc(OC)c1C(=O)NCC(F)(F)F [Cpd 4, 4-[5-[1-(cyanomethyl)-4-piperidyl]benzimidazol-1-yl]-2,6-dimethoxy-N-(2,2,2-trifluoroethyl)benzamide]
< 6.30 | 6.30 to 7.00 | < 6.30 |  |  |  | COc1cc(-n2cnc3cc(C4CCOCC4)ccc32)cc(OC)c1C(=O)NCC(F)(F)F [Cpd 5, 2,6-dimethoxy-4-(5-tetrahydropyran-4-ylbenzimidazol-1-yl)-N-(2,2,2-trifluoroethyl)benzamide]
< 6.30 | 6.30 to 7.00 | < 6.30 |  |  |  | COc1cc(-n2cnc3cc(C4CCCN(C)C4)ccc32)cc(OC)c1C(=O)NCC(F)(F)F (stereo not drawn) [Cpd 6, 2,6-dimethoxy-4-[5-(1-methyl-3-piperidyl)benzimidazol-1-yl]-N-(2,2,2-trifluoroethyl)benzamide]
< 6.30 | < 6.30 | < 6.30 |  |  |  | COc1cc(-n2cnc3cc(C4CCCN(C(=O)OC(C)(C)C)C4)ccc32)cc(OC)c1C(=O)NCC(F)(F)F (stereo not drawn) [Cpd 7, tert-butyl 3-[1-[3,5-dimethoxy-4-(2,2,2-trifluoroethylcarbamoyl)phenyl]benzimidazol-5-yl]piperidine-1-carboxylate]
< 6.30 | 6.30 to 7.00 | < 6.30 |  |  |  | COc1cc(-n2cnc3cc(C4CCCNC4)ccc32)cc(OC)c1C(=O)NCC(F)(F)F (stereo not drawn) [Cpd 8, 2,6-dimethoxy-4-[5-(3-piperidyl)benzimidazol-1-yl]-N-(2,2,2-trifluoroethyl)benzamide]
< 6.30 | 6.30 to 7.00 | < 6.30 |  |  |  | COc1cc(-n2cnc3cc(C4CCCN(CC#N)C4)ccc32)cc(OC)c1C(=O)NCC(F)(F)F (stereo not drawn) [Cpd 9, 4-[5-[1-(cyanomethyl)-3-piperidyl]benzimidazol-1-yl]-2,6-dimethoxy-N-(2,2,2-trifluoroethyl)benzamide]
< 6.30 | 6.30 to 7.00 | < 6.30 | < 6.30 | 6.30 to 7.00 | < 6.30 | COc1cc(-n2cnc3cc(C(C)(C)C#N)ccc32)cc(OC)c1C(=O)NCC(F)(F)F [Cpd 10, 4-[5-(1-cyano-1-methyl-ethyl)benzimidazol-1-yl]-2,6-dimethoxy-N-(2,2,2-trifluoroethyl)benzamide]
< 6.30 | < 6.30 | < 6.30 | < 6.30 | 6.30 to 7.00 | < 6.30 | COc1cc(-n2cnc3cc(C(C)(C)C#N)ccc32)cc(OC)c1C(=O)NC1CC1 [Cpd 11, 4-[5-(1-cyano-1-methyl-ethyl)benzimidazol-1-yl]-N-cyclopropyl-2,6-dimethoxy-benzamide]
< 6.30 | 6.30 to 7.00 | < 6.30 |  |  |  | COc1cc(-n2cnc3cc(C(C)(C)C#N)ccc32)cc(OC(F)F)c1C(=O)NC1CC1 [Cpd 12, 4-[5-(1-cyano-1-methyl-ethyl)benzimidazol-1-yl]-N-cyclopropyl-2-(difluoromethoxy)-6-methoxy-benzamide]
< 6.30 | < 6.30 | < 6.30 |  |  |  | COc1cc(-n2cnc3cc(C4(C#N)CCC4)ccc32)cc(OC)c1C(=O)NCC(F)(F)F [Cpd 13, 4-[5-(1-cyanocyclobutyl)benzimidazol-1-yl]-2,6-dimethoxy-N-(2,2,2-trifluoroethyl)benzamide]
< 6.30 | < 6.30 | < 6.30 |  |  |  | COc1cc(-n2cnc3cc(C4(C#N)CCC4)ccc32)cc(OC)c1C(=O)NC1CC1 [Cpd 14, 4-[5-(1-cyanocyclobutyl)benzimidazol-1-yl]-N-cyclopropyl-2,6-dimethoxy-benzamide]
< 6.30 | < 6.30 | < 6.30 |  |  |  | COc1cc(-n2cnc3cc(C(C)C#N)ccc32)cc(OC)c1C(=O)NCC(F)(F)F (stereo not drawn) [Cpd 15, 4-[5-(1-cyanoethyl)benzimidazol-1-yl]-2,6-dimethoxy-N-(2,2,2-trifluoroethyl)benzamide]
< 6.30 | 7.00 to 8.00 | < 6.30 | < 6.30 | 7.00 to 8.00 | < 6.30 | COc1cc(-c2cnc3cc(C(C)(C)C#N)ccn23)cc(OC)c1C(=O)N1CC(F)(F)C1 [Cpd 18, 2-[3-[4-(3,3-difluoroazetidine-1-carbonyl)-3,5-dimethoxy-phenyl]imidazo[1,2-a]pyridin-7-yl]-2-methyl-propanenitrile]
< 6.30 | 7.00 to 8.00 | 6.30 to 7.00 |  |  |  | COc1cc(-c2cnc3cc(C4CCCN(C(=O)OC(C)(C)C)C4)ccn23)cc(OC)c1C(=O)NCC(F)(F)F (stereo not drawn) [Cpd 21, tert-butyl 3-[3-[3,5-dimethoxy-4-(2,2,2-trifluoroethylcarbamoyl)phenyl]imidazo[1,2-a]pyridin-7-yl]piperidine-1-carboxylate]
< 6.30 | 7.00 to 8.00 | 6.30 to 7.00 | 6.30 to 7.00 | 7.00 to 8.00 | < 6.30 | COc1cc(-c2cnc3cc(C4CCN(C)CC4)ccn23)cc(OC)c1C(=O)NCC(F)(F)F [Cpd 22, 2,6-dimethoxy-4-[7-(1-methyl-4-piperidyl)imidazo[1,2-a]pyridin-3-yl]-N-(2,2,2-trifluoroethyl)benzamide]
< 6.30 | 7.00 to 8.00 | 6.30 to 7.00 | 6.30 to 7.00 | 7.00 to 8.00 | < 6.30 | COc1cc(-c2cnc3cc(C4CCCNC4)ccn23)cc(OC)c1C(=O)NCC(F)(F)F (stereo not drawn) [Cpd 23, 2,6-dimethoxy-4-[7-(3-piperidyl)imidazo[1,2-a]pyridin-3-yl]-N-(2,2,2-trifluoroethyl)benzamide]
< 6.30 | 7.00 to 8.00 | < 6.30 |  |  |  | COc1cc(-c2cnc3cc(C(C)(C)C(N)=O)ccn23)cc(OC)c1C(=O)NC1CC1 [Cpd 29, 4-[7-(2-amino-1,1-dimethyl-2-oxo-ethyl)imidazo[1,2-a]pyridin-3-yl]-N-cyclopropyl-2,6-dimethoxy-benzamide]
< 6.30 | 6.30 to 7.00 | < 6.30 | < 6.30 | 7.00 to 8.00 | < 6.30 | CCNC(=O)c1c(OC)cc(-c2cnc3cc(C(C)(C)C#N)ccn23)cc1OC [Cpd 30, 4-[7-(1-cyano-1-methyl-ethyl)imidazo[1,2-a]pyridin-3-yl]-N-ethyl-2,6-dimethoxy-benzamide]
< 6.30 | 6.30 to 7.00 | < 6.30 |  |  |  | CCNC(=O)c1c(OC)cc(-c2cnc3cc(C(C)(C)C(N)=O)ccn23)cc1OC [Cpd 31, 4-[7-(2-amino-1,1-dimethyl-2-oxo-ethyl)imidazo[1,2-a]pyridin-3-yl]-N-ethyl-2,6-dimethoxy-benzamide]
< 6.30 | 7.00 to 8.00 | < 6.30 | < 6.30 | 7.00 to 8.00 | < 6.30 | COc1cc(-c2cnc3cc(C(C)(C)C#N)ccn23)cc(OC)c1C(=O)NCC#N [Cpd 32, N-(cyanomethyl)-4-[7-(1-cyano-1-methyl-ethyl)imidazo[1,2-a]pyridin-3-yl]-2,6-dimethoxy-benzamide]
